The values that follow come from US20150274777A1, “KETOAMIDE IMMUNOPROTEASOME INHIBITORS” (HOFFMANN-LA ROCHE INC., priority 2012, published 2015).

One test addresses T1, β5i (Homo sapiens, UniProt P20618+P28062).
T1 construct: protease activity associated with the proteasome complex in cultured cells; endogenous in cells; host or cells: Ramos cells
Nature of the test: Cell-Based Proteasome Activity/Selectivity Assay (Ramos cells), substrate (ANW)2Rh110. The settings on record: highest concentration tested 20 μM, read-out: Ic50 ramos:ac-(anw)2-r110. Put shortly:
(§1)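 Ramos cells (5×10^4/well in DPBS) were treated with 4-fold compound dilutions (top 20 μM) for 30 min at 37 °C. A 2× mix of 0.025% digitonin, 20 μM of each Rh110 substrate and 0.5 M sucrose was added, then incubated 120 min at room temperature. Rh110 fluorescence was read at 500/519 nm.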

A further test addresses T2, β5c (Homo sapiens, UniProt P20618+P28074).
T2 construct: protease activity associated with the proteasome complex in cultured cells; endogenous in cells; host or cells: Ramos cells
The test is described as follows: Cell-Based Proteasome Activity/Selectivity Assay (Ramos cells), substrate (WLA)2Rh110. The conditions noted are these: highest concentration tested 20 μM. The method in brief: as §1

The subject of the next test is β2c/2i. The test is described as follows: Cell-Based Proteasome Activity/Selectivity Assay (Ramos cells), substrate (KQL)2Rh110. The settings on record: highest concentration tested 20 μM. Put shortly: as §1
A further test addresses T3, β1i (Homo sapiens, UniProt P28065+P40306).
T3 construct: protease activity associated with the proteasome complex in cultured cells; endogenous in cells; host or cells: Ramos cells
Nature of the test: Cell-Based Proteasome Activity/Selectivity Assay (Ramos cells), substrate (PAL)2Rh110. The settings on record: highest concentration tested 20 μM. The method in brief:
as §1

In the next test the target is T4, β1c (Homo sapiens, UniProt P28072+Q99436).
T4 construct: protease activity associated with the proteasome complex in cultured cells; endogenous in cells; host or cells: Ramos cells
The test is described as follows: Cell-Based Proteasome Activity/Selectivity Assay (Ramos cells), substrate (LLE)2 Rh110. The settings on record: highest concentration tested 20 μM. The method in brief: as §1

Test [1] deals with IP10 level in PBMCs stimulated with CpG Type A. Nature of the test: PBMC IP-10 Assay. It is filed as cell-based. The settings on record: CpG Type A 2.5 μM. Put shortly: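 Human PBMCs (~2×10^5/well) preincubated 60 min at 37° C. with titrated compound (1% DMSO final), then stimulated with CpG Type A (ODN 2216) at 2.5 μM final overnight. Supernatant IP-10 quantified by AlphaLISA; viability of remaining cells by ATP luminescence.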

`C[C@H](NC(=O)OCc1ccccc1)C(=O)NC(CC1CCOCC1)C(=O)N[C@@H](Cc1ccccc1)C(=O)C(=O)NCc1ccccc1` (stereo partly drawn) [Example 56, {(S)-1-[1-((S)-1-Benzyl-2-benzylcarbamoyl-2-oxo-ethylcarbamoyl)-2-(tetrahydro-pyran-4-yl)-ethylcarbamoyl]-ethyl}-carbamic acid benzyl ester]: the IC50 was 0.115 µM on β5i; 3.12 µM on β5c; above 20 µM with β2c/2i; 0.879 µM against β1i; above 20 µM against β1c. Also, the EC50 in test [1] worked out at 3.23 µM.
As for `C[C@H](NC(=O)OCc1ccccc1)C(=O)N[C@@H](Cc1ccncc1)C(=O)N[C@@H](Cc1ccccc1)C(=O)C(=O)NCc1ccccc1` [Example 58, {(S)-1-[(S)-1-((S)-1-Benzyl-2-benzylcarbamoyl-2-oxo-ethylcarbamoyl)-2-pyridin-4-yl-ethylcarbamoyl]-ethyl}-carbamic acid benzyl ester], the IC50 at β5i is 0.03 µM; against β5c, 0.96 µM; in the test on β2c/2i it was above 20 µM; on β1i, 0.478 µM; at β1c, above 20 µM. Also, the response in test [1] was half-maximal at 1.33 µM (EC50).
As for `COc1ccc(C[C@H](NC(=O)[C@H](C)NS(=O)(=O)c2ccccc2C)C(=O)N[C@@H](Cc2ccccc2)C(=O)C(=O)NCc2ccccc2)cc1` [Example 40, (S)—N-Benzyl-3-{(S)-3-(4-methoxy-phenyl)-2-[(S)-2-(toluene-2-sulfonylamino)-propionylamino]-propionylamino}-2-oxo-4-phenyl-butyramide], the IC50 at β5i is 0.046 µM; against β5c, 1.29 µM; in the test with β2c/2i, above 20 µM; at β1i it was 1.14 µM; on β1c, 14.7 µM. The same molecule came in with an EC50 in test [1] of 1.83 µM.
Take `C[C@H](NC(=O)c1cc(C(F)(F)F)nn1C)C(=O)N[C@@H](Cc1ccccc1)C(=O)N[C@@H](Cc1ccccc1)C(=O)C(=O)NCc1ccccc1` [Example 55, 2-Methyl-5-trifluoromethyl-2H-pyrazole-3-carboxylic acid {(S)-1-[(S)-1-((S)-1-benzyl-2-benzylcarbamoyl-2-oxo-ethylcarbamoyl)-2-phenyl-ethylcarbamoyl]-ethyl}-amide]: the IC50 on β5i was 0.176 µM; on β5c, 5.77 µM; in the test on β2c/2i, above 20 µM; against β1i, 8.92 µM; against β1c, above 20 µM. The molecule further had an EC50 in test [1] of 3.89 µM.
In the case of `COc1ccc(C[C@H](NC(=O)[C@H](C)NC(=O)C2Cc3ccccc3C2)C(=O)N[C@@H](Cc2ccccc2)C(=O)C(=O)NCc2ccccc2)cc1` [Example 19, Indan-2-carboxylic acid {(S)-1-[(S)-1-((S)-1-benzyl-2-benzylcarbamoyl-2-oxo-ethylcarbamoyl)-2-(4-methoxy-phenyl)-ethylcarbamoyl]-ethyl}-amide], the IC50 at β5i was 0.003 µM; against β5c, 0.055 µM; in the test on β2c/2i, above 20 µM; against β1i it was 0.234 µM; against β1c, above 20 µM. For the same molecule, the EC50 in test [1] was found to be 0.695 µM.
With `CC1=C(C(=O)N[C@@H](C)C(=O)N[C@@H](Cc2c[nH]c3ccccc23)C(=O)N[C@@H](Cc2ccccc2)C(=O)C(=O)NCc2ccccc2)Cc2ccccc21` [Example 48, 3-Methyl-1H-indene-2-carboxylic acid {(S)-1-[(S)-1-((S)-1-benzyl-2-benzylcarbamoyl-2-oxo-ethylcarbamoyl)-2-(1H-indol-3-yl)-ethylcarbamoyl]-ethyl}-amide], the IC50 was 0.008 µM at β5i; 1.01 µM on β5c; above 20 µM with β2c/2i; 1.17 µM at β1i; 13.6 µM at β1c. The molecule further yielded an EC50 in test [1] of 0.615 µM.
Consider `CCCC[C@H](NC(=O)[C@H](CC(C)C)NC(=O)[C@@H](NC(=O)[C@H](Cc1ccccc1C)NC(C)=O)C(C)(C)C)C(=O)C(=O)NCc1ccccc1` [Example 1, (S)-3-{(S)-2-[(S)-2-((S)-2-Acetylamino-3-o-tolyl-propionylamino)-3,3-dimethyl-butyrylamino]-4-methyl-pentanoylamino}-2-oxo-heptanoic acid benzylamide], for which the IC50 turned out to be 0.146 µM at β5i; 0.45 µM against β5c; 10.6 µM in the test with β2c/2i; 0.91 µM against β1i; 3.55 µM against β1c. Further, in test [1], the EC50 turned out to be 2.05 µM.
For `CNC(=O)C(=O)[C@H](Cc1ccccc1)NC(=O)[C@H](Cc1c[nH]c2ccccc12)NC(=O)[C@H](C)NC(=O)OCc1ccccc1` [Example 31, {(S)-1-[(S)-1-((S)-1-Benzyl-2-methylcarbamoyl-2-oxo-ethylcarbamoyl)-2-(1H-indol-3-yl)-ethylcarbamoyl]-ethyl}-carbamic acid benzyl ester], the IC50 on β5i was 0.034 µM; at β5c it was 0.738 µM; in the test on β2c/2i it was above 20 µM; against β1i, 0.244 µM; against β1c it was 13.1 µM. This molecule also displayed an EC50 in test [1] of 1.18 µM.
With `C[C@H](NC(=O)C1Cc2ccccc2C1)C(=O)N[C@@H](Cc1ccccc1)C(=O)N[C@@H](Cc1ccccc1)C(=O)C(=O)NCc1ccccc1` [Example 43, Indan-2-carboxylic acid {(S)-1-[(S)-1-((S)-1-benzyl-2-benzylcarbamoyl-2-oxo-ethylcarbamoyl)-2-phenyl-ethylcarbamoyl]-ethyl}-amide], the IC50 at β5i was 0.003 µM; on β5c, 0.192 µM; in the test on β2c/2i, above 20 µM; on β1i it was 0.257 µM; at β1c it was 18.3 µM. It took 0.784 µM to reach a half-maximal effect in test [1] (EC50).
On to `C[C@H](NC(=O)CN1CCOCC1)C(=O)N[C@@H](Cc1c[nH]c2ccccc12)C(=O)N[C@@H](Cc1ccccc1)C(=O)C(=O)NCc1ccccc1` [Example 22, (S)—N-Benzyl-3-{(S)-3-(1H-indol-3-yl)-2-[(S)-2-(2-morpholin-4-yl-acetylamino)-propionylamino]-propionylamino}-2-oxo-4-phenyl-butyramide], for which the IC50 at β5i was 0.124 µM; against β5c it was 3.3 µM; in the test with β2c/2i it was above 20 µM; on β1i it was 1.1 µM; at β1c, above 20 µM. The same molecule showed an EC50 in test [1] of 5.78 µM.
Take `C[C@H](NC(=O)C1Cc2ccccc2C1)C(=O)N[C@@H](CCc1ccccc1)C(=O)N[C@@H](Cc1ccccc1)C(=O)C(=O)NCc1ccccc1` [Example 42, Indan-2-carboxylic acid {(S)-1-[(S)-1-((S)-1-benzyl-2-benzylcarbamoyl-2-oxo-ethylcarbamoyl)-3-phenyl-propylcarbamoyl]-ethyl}-amide]: the IC50 was 0.004 µM on β5i; 0.014 µM against β5c; above 20 µM with β2c/2i; 0.968 µM at β1i; 18.1 µM on β1c. Further, in test [1], the EC50 came out at 0.379 µM.
Regarding `COc1ccc(C[C@H](NC(=O)C2(NC(=O)C3Cc4ccccc4C3)CC2)C(=O)N[C@@H](Cc2ccccc2)C(=O)C(=O)NCc2ccccc2)cc1` [Example 27, Indan-2-carboxylic acid {1-[(S)-1-((S)-1-benzyl-2-benzylcarbamoyl-2-oxo-ethylcarbamoyl)-2-(4-methoxy-phenyl)-ethylcarbamoyl]-cyclopropyl}-amide], the IC50 was 0.04 µM on β5i; 4.52 µM on β5c; above 20 µM in the test with β2c/2i; 5.06 µM against β1i; 12.9 µM against β1c. Also, in test [1], the EC50 was found to be 4.87 µM.
As for `COc1ccc(C[C@H](NC(=O)[C@H](C)NC(=O)CCc2ccnn2C)C(=O)N[C@@H](Cc2ccccc2)C(=O)C(=O)NCc2ccccc2)cc1` [Example 41, (S)—N-Benzyl-3-((S)-3-(4-methoxy-phenyl)-2-{(S)-2-[3-(2-methyl-2H-pyrazol-3-yl)-propionylamino-]propionylamino}-propionylamino)-2-oxo-4-phenyl-butyramide], the IC50 on β5i was 0.026 µM; against β5c it was 0.385 µM; in the test on β2c/2i it was above 20 µM; at β1i, 0.697 µM; on β1c, 18.4 µM. For the same molecule, the EC50 in test [1] was 1.5 µM.
In the case of `CCCC[C@H](NC(=O)[C@H](Cc1c[nH]c2ccccc12)NC(=O)[C@H](C)NC(=O)C1=C(C)c2ccccc2C1)C(=O)C(=O)N[C@H](C)c1ccccc1` [Example 8], the IC50 at β5i was 0.033 µM; at β5c it was 0.771 µM; with β2c/2i, above 20 µM; against β1i, 0.504 µM; against β1c, 11.1 µM. Moreover, in test [1], the EC50 is 1.78 µM.
In the case of `C[C@H](NC(=O)C1Cc2ccccc2C1)C(=O)N[C@@H](Cc1c[nH]c2ccccc12)C(=O)N[C@@H](Cc1ccccc1)C(=O)C(=O)NCc1ccccc1` [Example 18, Indan-2-carboxylic acid {(S)-1-[(S)-1-((S)-1-benzyl-2-benzylcarbamoyl-2-oxo-ethylcarbamoyl)-2-(1H-indol-3-yl)-ethylcarbamoyl]-ethyl}-amide], the IC50 is 0.005 µM on β5i; 0.173 µM at β5c; 7.02 µM with β2c/2i; 0.441 µM against β1i; 3.28 µM on β1c. In test [1], this molecule displayed an EC50 of 0.672 µM.
